The values that follow come from PubChem BioAssay AID1648 (Sanford-Burnham Center for Chemical Genomics, 2009).

Each structure is given as a SMILES string. Activity calls are given as the source filed them. The rule behind the calls is not given here.

In this experiment the target is Serine/threonine-protein kinase mTOR (Homo sapiens) (UniProt P42345). The experiment in a line: mTOR FRB domain ligand binding – biophysical, NMR (AID 1648). The note with it: NMR binding to FRB domain, chemical shift.
Sequence of Serine/threonine-protein kinase mTOR (Homo sapiens) (P42345 2015-2114): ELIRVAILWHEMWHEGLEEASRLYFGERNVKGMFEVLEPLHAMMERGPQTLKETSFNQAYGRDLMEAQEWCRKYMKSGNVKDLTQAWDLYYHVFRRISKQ
Turning to `COc1cc(OC)c2c(OC)c(-c3ccc4c(c3)OCO4)c(=O)oc2c1`, the Kd (as a rule, the free concentration of one partner at which half of the binding sites on the other are occupied at equilibrium, for simple one-to-one binding) was > 4 mM (inactive). The figure for `CC(C)(C)NC(=O)N1CCC(C(=O)O)CC1` is > 4 mM (inactive); for `COC(=O)Cc1cc(=O)n(-c2ccccc2)[nH]1` it is > 4 mM (inactive).

As for `COc1ccc(C)cc1S(=O)(=O)N1CCCCC1`, the Kd was > 4 mM (inactive). The same measure for `O=C(NCc1cccc(Cl)c1)c1cnccn1`: > 4 mM (inactive); for `Cc1nc2sc3c(c2c(=N)n1N)CC(C)(C)OC3`: > 4 mM (inactive); for `CC(=O)Nc1ccc(S(N)(=O)=O)cc1`: > 4 mM (inactive). On to `C#CCCCCCCCCCCCC(O)CC(O)COC(C)=O` (centres undefined), for which the Kd is > 4 mM (inactive). The same measure for `Nc1cccc(NC(=O)c2cccs2)c1`: > 4 mM (inactive). For `CC(=O)Nc1nnc(-c2ccncc2)s1`, the Kd was > 4 mM (inactive).

For the compound `CCCCN1C(=O)C2CC/C(=N/O)CC2C1=O` (centres undefined), the Kd was > 4 mM (inactive). As for `CC(=O)Nc1cccc(NC(=O)c2ccco2)c1`, the Kd is > 4 mM (inactive).

With `O=C(Nc1ccccc1F)c1ccncc1`, the Kd is > 4 mM (inactive). The same measure for `COc1cc(O)ccc1C(C)=O`: > 4 mM (inactive).

As to `CC1(C)N([O-])c2cc([N+](=O)[O-])ccc2[N+]1=O`, the Kd was > 4 mM (inactive). The same measure for `CC(=O)NC(=S)Nc1ccc(N(C)C(C)=O)cc1`: > 4 mM (inactive); for `O=C(Nc1ccon1)c1cccc(C(F)(F)F)c1`: > 4 mM (inactive).

In the case of `Cn1c(=O)c2c([nH]c(=O)n2C)n(C)c1=O`, the Kd was > 4 mM (inactive). As for `O=C(O)C1CSC(c2ccco2)N1` (centres undefined), the Kd was > 4 mM (inactive). Regarding `OCc1ccc2c(c1)OCCCO2`, the Kd was > 4 mM (inactive).

On to `COCCn1c(N)nc2c1c(=O)[nH]c(=O)n2C`, for which the Kd was > 4 mM (inactive). Regarding `NC(=O)CN1CC(=O)NC(=O)C1`, the Kd was > 4 mM (inactive). Take `Cc1ccc(S(=O)(=O)CC(=O)N2CCCC2)cc1`: the Kd is > 4 mM (inactive). As to `Cc1ccc(CCC(N)=O)o1`, the Kd is > 4 mM (inactive).

Consider `OCCNC(=S)Nc1ccccc1`, for which the Kd was > 4 mM (inactive).

On to `COc1ccc(Cc2nnc3c4cnn(C)c4ncn23)cc1`, for which the Kd was > 4 mM (inactive). The same measure for `NC(=O)NC1C=CS(=O)(=O)C1` (centres undefined): > 4 mM (inactive); for `CC(=O)c1cccc(NS(=O)(=O)N2CCCCC2)c1`: > 4 mM (inactive); for `COc1cccc(-c2nc3ccc(O)cc3c(=O)o2)c1`: > 4 mM (inactive). With `O=c1c(-c2ccc(O)cc2)coc2cc(O)ccc12`, the Kd is > 4 mM (inactive). As for `NC(N)=NCCCCN=C(N)N`, the Kd was > 4 mM (inactive). The figure for `O=C(Cn1cnc2ccccc2c1=O)N1CCOCC1` is > 4 mM (inactive).

On to `CC(=O)NC(=S)Nc1ccccc1C`, for which the Kd was > 4 mM (inactive). For `Cc1nc(-c2cc(C(=O)O)no2)cs1`, the Kd is > 4 mM (inactive).

Regarding `COc1ccc(C(N)=O)cc1NC(C)=O`, the Kd was > 4 mM (inactive).

In the case of `NC(=O)c1c[nH]c2ccccc12`, the Kd is > 4 mM (inactive). The figure for `Nc1[nH]c(=S)ncc1S(=O)(=O)c1ccccc1` is > 4 mM (inactive); for `Nc1ccc(N2CCOCC2)c(Cl)c1` it is > 4 mM (inactive); for `CC1CCN(C(=O)c2ccc(NS(C)(=O)=O)cc2)CC1` it is > 4 mM (inactive). The same measure for `CNC(=O)C1CCCN(S(C)(=O)=O)C1` (centres undefined): > 4 mM (inactive). The figure for `O=C1NC2NC(=O)N(c3ccccc3)C2N1` (centres undefined) is > 4 mM (inactive). `C=C[C@H]1CN2CC[C@H]1C[C@H]2[C@H](O)c1ccnc2ccccc12`: the Kd is > 4 mM (inactive). The same measure for `CC(C)(C)CC(=O)NC1=NCCS1`: > 4 mM (inactive).

With `COc1ccc(-c2coc3cc(OC)cc(OC)c3c2=O)cc1`, the Kd was > 4 mM (inactive). Regarding `COc1ccc2c(c1)CCCN2C(N)=O`, the Kd was > 4 mM (inactive). Take `Cn1c(O)c(/C=C2\C=CC=N2)c(=O)[nH]c1=S`: the Kd is > 4 mM (inactive). The figure for `CCn1cnc2cc(NCc3ccncc3)ccc21` is > 4 mM (inactive).

For the compound `O=C(Nn1cnnc1)c1ccccc1Cl`, the Kd is > 4 mM (inactive). Regarding `O=C(O)c1cc2ccccc2cn1`, the Kd was > 4 mM (inactive).

As to `CC(=O)O[C@H]1C[C@@H](OC(C)=O)C(C)(C)C2C[C@@H](OC(C)=O)[C@@]3(C)C4=CC(=O)O[C@@H](c5ccoc5)[C@]4(C)CCC3[C@]21C` (some centres undefined), the Kd is > 4 mM (inactive).

As to `O=c1/c(=C\c2cccnc2)sc2nc3ccccc3n12`, the Kd was > 4 mM (inactive). Take `O=C(O)c1cnn2ccccc12`: the Kd is > 4 mM (inactive). The figure for `Cc1nnc(NCCN2CCOCC2)[nH]c1=O` is > 4 mM (inactive). The figure for `C[C@@H]1OC(O[C@H]2[C@H](OC(=O)[C@]34CCC(C)(C)CC3C3=CCC5[C@@]6(C)CC[C@H](OC7O[C@@H](C)[C@H](O[C@@H]8OC[C@@H](O)[C@H](O)[C@H]8O)[C@@H](O)[C@H]7O)C(C)(C)C6CC[C@@]5(C)[C@]3(C)CC4O)OC[C@H](O)[C@H]2O)[C@H](O)[C@H](O)[C@H]1O[C@@H]1O[C@H](CO)[C@@H](O)[C@H](O)[C@H]1O` (some centres undefined) is > 4 mM (inactive). Turning to `CC(=O)c1ccc(N2C(=O)C(C(C)C)NC2=S)cc1` (centres undefined), the Kd was > 4 mM (inactive). The same measure for `O=C(O)Cc1noc2ccccc12`: > 4 mM (inactive). In the case of `NS(=O)(=O)c1ccc(F)cc1`, the Kd is > 4 mM (inactive).

As to `O=C(O)C1COc2ccccc2C1` (centres undefined), the Kd is > 4 mM (inactive). The same measure for `Cc1cc(=O)oc2c1c(C)nn2CN1CCN(C)CC1`: > 4 mM (inactive); for `O=C(c1ccccc1)c1ccccc1C(=O)N1CCCC1`: > 4 mM (inactive); for `C=C(C)C1(O)OC(=O)C=C1OC` (centres undefined): > 4 mM (inactive). `NS(=O)(=O)c1ccc(NC(=S)NC2CC2)cc1`: the Kd was > 4 mM (inactive). The figure for `O=C(O)CCS(=O)(=O)c1ccccc1` is > 4 mM (inactive).

As to `CC(=O)O[C@H]1CC[C@@]2(C)C(CC[C@]3(C)C2CC=C2C4CC(C)(C)CC[C@]4(C)CC[C@]23C)C1(C)C` (some centres undefined), the Kd is > 4 mM (inactive).

As to `Cc1nc2nc(COc3ccccc3)nn2c(C)c1Cl`, the Kd was > 4 mM (inactive). The figure for `c1ccc(-c2nnc3sc(-c4ccncc4)nn23)cc1` is > 4 mM (inactive); for `CN1CCN(c2nc3c(c(=O)[nH]2)CCCC3)CC1` it is > 4 mM (inactive); for `CC1(NC(=O)NCc2ccccc2)CCS(=O)(=O)C1` (centres undefined) it is > 4 mM (inactive). The figure for `OCC1CNc2ccccc2O1` (centres undefined) is > 4 mM (inactive); for `CC1=CC(=O)CC(C)(C)C1(O)/C=C/C(C)=C\C(=O)O` (centres undefined) it is > 4 mM (inactive); for `Cc1nc(-c2ccc(NS(C)(=O)=O)cc2)cs1` it is > 4 mM (inactive). Consider `CN1C(=O)Cc2cc(S(N)(=O)=O)ccc21`, for which the Kd was > 4 mM (inactive).

For `CN(C)C(=O)CSc1nc2ccccc2c(=O)[nH]1`, the Kd is > 4 mM (inactive). The figure for `O/N=C1/CCCc2nonc21` is > 4 mM (inactive). The figure for `Cc1c(/C=N/O)cnn1C` is > 4 mM (inactive); for `CNS(=O)(=O)c1cccs1` it is > 4 mM (inactive). Turning to `CC(=O)Nc1cnn(Cc2ccc(Br)cc2)c1`, the Kd is > 4 mM (inactive). The figure for `COc1ccc(-c2cc3nc4n(c(=O)c3s2)CCC4)cc1` is > 4 mM (inactive); for `CC1(C(=O)O)CC2C=CC1C2` (centres undefined) it is > 4 mM (inactive); for `COc1cc(-c2nnc(NC(C)=O)o2)cc(OC)c1OC` it is > 4 mM (inactive). `CC(N)C(=O)c1ccco1` (centres undefined): the Kd is > 4 mM (inactive). For the compound `Nc1ccccc1N1CCOCC1`, the Kd is > 4 mM (inactive).

With `Cn1nnc2cc(C(=O)N3CCSCC3)ccc21`, the Kd was > 4 mM (inactive). The figure for `NC(=O)Cn1nnc(-c2ccc(C(F)(F)F)cc2)n1` is > 4 mM (inactive); for `N#Cc1c[nH]n2c(=O)cc(Cc3ccccc3)nc12` it is > 4 mM (inactive). The same measure for `Cc1cc(C)n2c(SCc3cccs3)nnc2n1`: > 4 mM (inactive); for `CCN1CCc2c(sc(N)c2C#N)C1`: > 4 mM (inactive). The same measure for `NC(=O)c1ccc(N2CCCCC2)c(N)c1`: > 4 mM (inactive); for `O=S(=O)(N1CCCCC1)n1nnc2ccccc21`: > 4 mM (inactive). Turning to `CSc1cccc(NC(=O)c2c(Cl)cnn2C)c1`, the Kd is > 4 mM (inactive). For the compound `Cc1[nH]n(-c2ccccc2)c(=O)c1[N+](=O)[O-]`, the Kd was > 4 mM (inactive). Take `COc1ccccc1C(=O)NC1CCN(C)CC1`: the Kd was > 4 mM (inactive). The figure for `COC1=CC(=O)C=C(OC)C1=O` is > 4 mM (inactive); for `Nc1c(N2CCCC2)cnn(-c2ccccc2)c1=O` it is > 4 mM (inactive). The figure for `Cc1nn(C)c2sc(C(=O)O)cc12` is > 4 mM (inactive); for `Nc1ccc(-n2cccn2)cc1` it is > 4 mM (inactive); for `Cc1cc(C(=O)N2CCC3(CC2)OCCO3)cs1` it is > 4 mM (inactive).

Regarding `COc1ccc2nc(N)sc2c1`, the Kd is > 4 mM (inactive).

Regarding `CCn1c(-c2ccccc2)n[nH]c1=S`, the Kd is > 4 mM (inactive). The same measure for `CC(=O)Nc1ccc(S(=O)(=O)Nc2cc(C)on2)cc1`: > 4 mM (inactive); for `O=C(Nc1cnccn1)c1cccc(C(F)(F)F)c1`: > 4 mM (inactive); for `CCOC(=O)c1csc(C2COc3ccccc3O2)n1` (centres undefined): > 4 mM (inactive).

On to `c1ccc(CSc2ncccn2)cc1`, for which the Kd was > 4 mM (inactive). As to `CCOC(=O)Cc1cc(=O)n2[nH]c(C)cc2n1`, the Kd is > 4 mM (inactive).
